In brackets after ≈: the same amount, converted by molar mass.
How the values were obtained:
[1] = system: Proteus mirabilis; test: Activity in vivo: survival of mice infected intraperitoneally with Proteus mirabilis; details: sc, 96 h; mice infected i.p. with Proteus mirabilis; compound s.c. one hour after infection; survival on 4th day; by interpolation; read-out: CD50 (dosage at which 50% of the mice survive)
Method: Groups of 10 mice are infected intraperitoneally with an aqueous suspension of Proteus mirabilis. One hour after the infection the test compound is administered subcutaneously. The number of surviving mice is determined on the 4th day. Various dosages of test compound are administered and the dosage at which 50% of the mice survice (CD50, mg/kg) is determined by interpolation.

[2] = system: Proteus rettgeri; test: Activity in vitro: Minimum Inhibitory Concentration; format: cell-based; details: Providencia rettgeri
Description: (§1) Activity in vitro: Minimum Inhibitory Concentration (μg/ml)

[3] = system: Staphylococcus aureus Penicillin-resistant strain; test: as above; format: cell-based
Description: as §1

[4] = system: Proteus vulgaris; test: as above; format: cell-based
Description: as §1

[5] = system: Escherichia coli; test: as above; format: cell-based
Description: as §1

[6] = system: Staphylococcus aureus ATCC 6538; test: as above; format: cell-based; details: ATCC6538
Description: as §1

[7] = system: Klebsiella pneumoniae; test: as above; format: cell-based
Description: as §1

[8] = system: Haemophilus influenzae; test: as above; format: cell-based
Description: as §1

[9] = system: Proteus mirabilis; test: as above; format: cell-based
Description: as §1

[10] = Toxicity (mice, 24 hour values); details: mouse, in vivo
Method: TOXICITY (mice, 24 hour values)

[11] = Haemophilus influenzae strain 1
[12] = Haemophilus influenzae strain 2
[13] = Haemophilus influenzae strain 3
[14] = Haemophilus influenzae strain 4
[15] = Haemophilus influenzae strain 5
[16] = Haemophilus influenzae strain 6
[17] = Haemophilus influenzae strain 7

Compound | ED50 [1] [mg/kg] | MIC [2] [µg/mL] | MIC [3] [µg/mL] | MIC [4] [µg/mL] | MIC ([5]; Escherichia coli strain 1) [µg/mL] | MIC ([5]; Escherichia coli strain 2) [µg/mL] | MIC [6] [µg/mL] | MIC [7] [µg/mL] | MIC [8, 11] [µg/mL] | MIC [8, 12] [µg/mL] | MIC [8, 13] [µg/mL] | MIC [8, 14] [µg/mL] | MIC [8, 15] [µg/mL] | MIC [8, 16] [µg/mL] | MIC [8, 17] [µg/mL] | MIC ([9]; Proteus mirabilis strain 1) [µg/mL] | MIC ([9]; Proteus mirabilis strain 2) [µg/mL] | LD50 at 24 h ([10]; iv, mice, 24 hour values) [mg/kg] | other results
CON=C(C(=O)N[C@@H]1C(=O)N2C(C(=O)O)=C(CSc3nc(=O)c(=O)[nH]n3C)CS[C@H]12)c1ccco1 [Compound A, (7R)-7-[2-(2-furyl)-2-(methoxyimino)acetamido]-3-[[(1,2,5,6-tetrahydro-2-methyl-5,6-dioxo-as-triazin-3-yl)thio]methyl]-3-cephem-4-carboxylic acid] | 0.09 | 0.63 (≈ 1.21 µM) | 5 (≈ 9.57 µM) | 5 (≈ 9.57 µM) | 0.63 (≈ 1.21 µM) | 40 (≈ 76.6 µM) | 2.5 (≈ 4.78 µM) | 10 (≈ 19.1 µM) | 1.2 (≈ 2.3 µM) | 0.16 (≈ 0.306 µM) | 0.16 (≈ 0.306 µM) | 0.16 (≈ 0.306 µM) | 0.08 (≈ 0.153 µM) | 0.16 (≈ 0.306 µM) | 0.08 (≈ 0.153 µM) | 2.5 (≈ 4.78 µM) | 5 (≈ 9.57 µM) | 500 to 1000 | LD50 at 24 h ([10]; po, mice, 24 hour values): > 5000 mg/kg; LD50 at 24 h ([10]; sc, mice, 24 hour values): > 4000 mg/kg
CON=C(C(=O)N[C@@H]1C(=O)N2C(C(=O)O)=C(CSc3ccn(N)c(=O)n3)CS[C@H]12)c1ccco1 [Compound B, (7R)-7-[2-(2-furyl)-2-(methoxyimino)acetamido]-3-[[(1-amino-1,2-dihydro-2-oxo-4-pyrimidinyl)thio]-methyl]-3-cephem-4-carboxylic acid] | 3 | 2.5 (≈ 4.94 µM) | 1.2 (≈ 2.37 µM) | 40 (≈ 79 µM) | 2.5 (≈ 4.94 µM) | 20 (≈ 39.5 µM) | 0.16 (≈ 0.316 µM) | 20 (≈ 39.5 µM) | 2.5 (≈ 4.94 µM) | 0.63 (≈ 1.24 µM) | 0.63 (≈ 1.24 µM) | 0.31 (≈ 0.612 µM) | 0.31 (≈ 0.612 µM) | 0.31 (≈ 0.612 µM) | 0.31 (≈ 0.612 µM) | 10 (≈ 19.7 µM) | 40 (≈ 79 µM) | 1000 to 2000 | 
CON=C(C(=O)N[C@@H]1C(=O)N2C(C(=O)O)=C(CSc3nc(=O)c(=O)[nH]n3C)CS[C@H]12)c1ccccc1 [Compound C, (7R)-7-[2-(phenyl)-2-(methoxyimino)acetamido]-3-[[(1,2,5,6-tetrahydro-2-methyl-5,6-dioxo-as-triazin-3-yl)thio]methyl]-3-cephem-4-carboxylic acid] | 0.6 | 0.63 (≈ 1.18 µM) | 2.5 (≈ 4.69 µM) | 10 (≈ 18.8 µM) | 1.2 (≈ 2.25 µM) | 10 (≈ 18.8 µM) | 2.5 (≈ 4.69 µM) | 20 (≈ 37.6 µM) | 2.5 (≈ 4.69 µM) | 0.16 (≈ 0.3 µM) | 0.16 (≈ 0.3 µM) | 0.16 (≈ 0.3 µM) | 0.08 (≈ 0.15 µM) | 0.08 (≈ 0.15 µM) | 0.08 (≈ 0.15 µM) | 10 (≈ 18.8 µM) | 20 (≈ 37.6 µM) | 1000 to 2000 | 
CON=C(C(=O)N[C@@H]1C(=O)N2C(C(=O)O)=C(CSc3n[nH]c(=O)c(=O)n3C)CS[C@H]12)c1ccco1 [Compound D, (7R)-7-[2-(2-furyl)-2-(methoxyimino)acetamido]-3-[[(1,4,5,6-tetrahydro-4-methyl-5,6-dioxo-as-triazin-3-yl)thio]methyl]-3-cephem-4-carboxylic acid] | 0.7 | 0.63 (≈ 1.21 µM) | 0.63 (≈ 1.21 µM) | 1.2 (≈ 2.3 µM) | 0.16 (≈ 0.306 µM) | 5 (≈ 9.57 µM) | 0.63 (≈ 1.21 µM) | 5 (≈ 9.57 µM) | 2.5 (≈ 4.78 µM) | 0.31 (≈ 0.593 µM) | 0.31 (≈ 0.593 µM) | 0.31 (≈ 0.593 µM) | 0.16 (≈ 0.306 µM) | 0.16 (≈ 0.306 µM) | 0.16 (≈ 0.306 µM) | 10 (≈ 19.1 µM) | 20 (≈ 38.3 µM) | 500 to 1000 | LD50 at 24 h ([10]; po, mice, 24 hour values): > 5000 mg/kg; LD50 at 24 h ([10]; sc, mice, 24 hour values): > 4000 mg/kg
CON=C(C(=O)N[C@@H]1C(=O)N2C(C(=O)O)=C(CSc3nc(=O)c(=O)[nH]n3C)CS[C@H]12)c1cccs1 [Compound E] | 1.15 | 2.5 (≈ 4.64 µM) | 2.5 (≈ 4.64 µM) | 10 (≈ 18.6 µM) | 2.5 (≈ 4.64 µM) | 20 (≈ 37.1 µM) | 2.5 (≈ 4.64 µM) | 40 (≈ 74.3 µM) | 2.5 (≈ 4.64 µM) | 0.16 (≈ 0.297 µM) | 0.16 (≈ 0.297 µM) | 0.16 (≈ 0.297 µM) | 0.08 (≈ 0.149 µM) | 0.08 (≈ 0.149 µM) | 0.08 (≈ 0.149 µM) | 10 (≈ 18.6 µM) | 20 (≈ 37.1 µM) |  | LD50 at 24 h ([10]; iv): 2000 to 4000 mg/kg
CCn1nc(SCC2=C(C(=O)O)N3C(=O)[C@@H](NC(=O)C(=NOC)c4ccco4)[C@H]3SC2)[nH]c(=O)c1=O [Compound F] | 0.85 | 10 (≈ 18.6 µM) | 5 (≈ 9.32 µM) | 20 (≈ 37.3 µM) | 1.2 (≈ 2.24 µM) | 80 (≈ 149 µM) | 5 (≈ 9.32 µM) | 40 (≈ 74.6 µM) | 2.5 (≈ 4.66 µM) | 0.31 (≈ 0.578 µM) | 1.2 (≈ 2.24 µM) | 0.16 (≈ 0.298 µM) | 0.08 (≈ 0.149 µM) | 0.08 (≈ 0.149 µM) | 0.16 (≈ 0.298 µM) | 20 (≈ 37.3 µM) | 40 (≈ 74.6 µM) |  | LD50 at 24 h ([10]; iv): 1000 to 2000 mg/kg
Cn1c(SCC2=C(C(=O)O)N3C(=O)[C@@H](NC(=O)C(=NOCC(N)=O)c4ccco4)[C@H]3SC2)n[nH]c(=O)c1=O [Compound G, (7R)-7-[2-[(carbamoylmethoxy)imino]-2-(2-furyl)-acetamido]-3-[[(1,4,5,6-tetrahydro-4-methyl-5,6-dioxo-as-triazin-3-yl)thio]methyl]-3-cephem-4-carboxylic acid] | 0.8 | 0.63 (≈ 1.11 µM) | 1.2 (≈ 2.12 µM) | 1.2 (≈ 2.12 µM) | 0.31 (≈ 0.548 µM) | 5 (≈ 8.84 µM) | 1.2 (≈ 2.12 µM) | 2.5 (≈ 4.42 µM) | 5 (≈ 8.84 µM) | 0.63 (≈ 1.11 µM) | 0.31 (≈ 0.548 µM) | 0.63 (≈ 1.11 µM) | 0.31 (≈ 0.548 µM) | 0.63 (≈ 1.11 µM) | 0.63 (≈ 1.11 µM) | 5 (≈ 8.84 µM) | 10 (≈ 17.7 µM) | > 4000 | 
